Measured values taken from ChEMBL document CHEMBL1201862, “PubChem BioAssay data set” (2004).
The source made the active and inactive calls. Cut-off read from the data, not from the text of the source, for most assays here: actives have a measured IC50 and inactives only a lower limit.

Key:
Type in all cases: functional
[1] = target: T1, Sentrin-specific protease 6 (Homo sapiens, UniProt Q9GZR1)
T1 sequence (Q9GZR1 whole entry): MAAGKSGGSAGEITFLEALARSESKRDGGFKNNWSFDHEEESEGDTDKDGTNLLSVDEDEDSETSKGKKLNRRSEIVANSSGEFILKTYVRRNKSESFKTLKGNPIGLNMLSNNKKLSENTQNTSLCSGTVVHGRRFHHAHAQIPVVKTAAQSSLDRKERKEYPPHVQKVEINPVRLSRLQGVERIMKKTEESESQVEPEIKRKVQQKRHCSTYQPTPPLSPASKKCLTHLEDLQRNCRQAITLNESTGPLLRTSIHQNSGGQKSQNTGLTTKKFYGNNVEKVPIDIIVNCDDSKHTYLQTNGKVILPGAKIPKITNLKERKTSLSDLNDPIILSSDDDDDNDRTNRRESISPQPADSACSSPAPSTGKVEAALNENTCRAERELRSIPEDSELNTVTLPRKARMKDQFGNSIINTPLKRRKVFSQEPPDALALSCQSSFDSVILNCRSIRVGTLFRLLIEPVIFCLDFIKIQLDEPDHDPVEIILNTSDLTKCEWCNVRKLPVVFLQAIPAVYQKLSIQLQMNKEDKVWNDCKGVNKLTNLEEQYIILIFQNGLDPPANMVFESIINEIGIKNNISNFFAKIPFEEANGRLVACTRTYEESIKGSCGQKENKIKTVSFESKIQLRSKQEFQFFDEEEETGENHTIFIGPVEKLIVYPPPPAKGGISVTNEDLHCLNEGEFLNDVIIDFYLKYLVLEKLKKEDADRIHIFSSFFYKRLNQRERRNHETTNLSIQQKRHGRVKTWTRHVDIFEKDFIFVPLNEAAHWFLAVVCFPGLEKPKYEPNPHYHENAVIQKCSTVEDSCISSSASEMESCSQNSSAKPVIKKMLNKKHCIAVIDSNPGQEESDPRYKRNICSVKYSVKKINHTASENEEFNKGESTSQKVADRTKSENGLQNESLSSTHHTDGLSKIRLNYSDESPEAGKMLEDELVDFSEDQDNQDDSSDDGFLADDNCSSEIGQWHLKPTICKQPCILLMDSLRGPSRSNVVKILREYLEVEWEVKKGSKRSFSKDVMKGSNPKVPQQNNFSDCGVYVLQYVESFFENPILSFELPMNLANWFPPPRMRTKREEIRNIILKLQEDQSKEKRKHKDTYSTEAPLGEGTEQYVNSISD

[2] = target: T2, Sentrin-specific protease 7 (Homo sapiens, UniProt Q9BQF6); experiment: inhibition of human SENP7 cleavage activity – biochemical, luminescence, SAR follow-up (AID 504497)
T2 sequence (Q9BQF6 whole entry): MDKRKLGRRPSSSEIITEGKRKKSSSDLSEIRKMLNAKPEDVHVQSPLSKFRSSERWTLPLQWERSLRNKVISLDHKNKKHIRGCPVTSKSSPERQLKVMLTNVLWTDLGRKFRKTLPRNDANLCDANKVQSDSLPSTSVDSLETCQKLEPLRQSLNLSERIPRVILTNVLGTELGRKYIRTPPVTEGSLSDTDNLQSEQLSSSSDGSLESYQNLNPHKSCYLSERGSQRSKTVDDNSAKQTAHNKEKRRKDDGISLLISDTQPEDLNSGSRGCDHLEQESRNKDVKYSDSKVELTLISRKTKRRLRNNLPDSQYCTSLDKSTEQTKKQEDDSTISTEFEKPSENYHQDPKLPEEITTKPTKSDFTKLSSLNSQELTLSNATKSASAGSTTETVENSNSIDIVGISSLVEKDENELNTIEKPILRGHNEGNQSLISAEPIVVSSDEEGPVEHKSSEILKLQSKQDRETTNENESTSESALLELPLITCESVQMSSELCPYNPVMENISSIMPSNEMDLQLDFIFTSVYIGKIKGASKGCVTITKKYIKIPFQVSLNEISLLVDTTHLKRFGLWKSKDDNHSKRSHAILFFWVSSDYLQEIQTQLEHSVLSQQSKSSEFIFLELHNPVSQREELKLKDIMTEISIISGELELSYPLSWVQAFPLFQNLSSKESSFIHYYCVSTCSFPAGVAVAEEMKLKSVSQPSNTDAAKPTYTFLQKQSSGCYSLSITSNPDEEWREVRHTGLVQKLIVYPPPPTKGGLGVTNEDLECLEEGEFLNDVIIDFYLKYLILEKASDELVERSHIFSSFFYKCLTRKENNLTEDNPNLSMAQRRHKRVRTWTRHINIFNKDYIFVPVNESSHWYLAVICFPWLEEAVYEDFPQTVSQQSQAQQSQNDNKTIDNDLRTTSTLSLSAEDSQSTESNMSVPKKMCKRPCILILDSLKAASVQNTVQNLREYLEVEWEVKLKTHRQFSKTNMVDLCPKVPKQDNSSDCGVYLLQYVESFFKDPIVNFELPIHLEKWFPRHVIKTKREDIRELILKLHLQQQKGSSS

[3] = target: T3, Sentrin-specific protease 8 (Homo sapiens, UniProt Q96LD8); experiment: inhibition of human SENP8 cleavage activity – biochemical, luminescence, SAR follow-up (AID 504501)
T3 sequence (Q96LD8 whole entry): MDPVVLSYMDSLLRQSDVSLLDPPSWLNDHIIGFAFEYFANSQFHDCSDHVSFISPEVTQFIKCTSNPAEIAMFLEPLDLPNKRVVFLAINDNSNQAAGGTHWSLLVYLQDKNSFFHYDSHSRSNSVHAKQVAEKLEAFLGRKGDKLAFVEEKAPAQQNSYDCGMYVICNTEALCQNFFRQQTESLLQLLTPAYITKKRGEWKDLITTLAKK

[4] = target: T1, Sentrin-specific protease 6; experiment: SAR Analysis of small molecule inhibitors of Sentrin-specific protease 6 (SENP6) using a Luminescent assay. [Related pubchem assays (depositor defined):AID2582, AID2599]
Caspase-3 [5] = target: T4, Caspase-3 (Homo sapiens, UniProt P42574); experiment: SAR Analysis of small molecule inhibitors of Sentrin-specific proteases (SENPs) using a Caspase-3 Selectivity assay. [Related pubchem assays (depositor defined):AID2540, AID2599, AID434973, AID489001]
T4 sequence (P42574 whole entry): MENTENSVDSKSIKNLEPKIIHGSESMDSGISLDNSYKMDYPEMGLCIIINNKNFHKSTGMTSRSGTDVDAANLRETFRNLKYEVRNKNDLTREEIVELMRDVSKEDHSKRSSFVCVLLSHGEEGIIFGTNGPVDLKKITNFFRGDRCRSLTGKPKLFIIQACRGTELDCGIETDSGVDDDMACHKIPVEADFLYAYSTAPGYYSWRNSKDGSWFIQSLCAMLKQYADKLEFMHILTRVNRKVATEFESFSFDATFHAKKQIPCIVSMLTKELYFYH

Caspase-3 [6] = target: T4, Caspase-3
[7] = target: T3, Sentrin-specific protease 8
[8] = target: T2, Sentrin-specific protease 7
[9] = target: Eukaryotic translation initiation factor 4E (Mus musculus, UniProt P63073); experiment: blockers of eIF4G binding by eIF4E – biochemical, TR-FRET, dose response (AID 855);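 note: potency for disrupting eIF4E binding to eIF4GI seen as loss of FRET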
Sequence of Eukaryotic translation initiation factor 4E (P63073 whole entry, the tested form may be a part): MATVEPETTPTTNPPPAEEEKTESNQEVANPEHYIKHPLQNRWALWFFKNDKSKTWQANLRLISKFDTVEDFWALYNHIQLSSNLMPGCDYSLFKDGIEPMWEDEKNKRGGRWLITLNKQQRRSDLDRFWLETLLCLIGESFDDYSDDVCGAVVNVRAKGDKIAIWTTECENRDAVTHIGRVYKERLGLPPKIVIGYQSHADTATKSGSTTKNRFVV

Hexokinase-1 = target: T5, Hexokinase-1 (Homo sapiens, UniProt P19367); experiment: SAR analysis of small molecule inhibitors of hexokinase domain containing I (HKDC1) in the hexokinase 1 selectivity assay. [Related pubchem assays (depositor defined):AID493160, AID493190]
T5 sequence (P19367 whole entry): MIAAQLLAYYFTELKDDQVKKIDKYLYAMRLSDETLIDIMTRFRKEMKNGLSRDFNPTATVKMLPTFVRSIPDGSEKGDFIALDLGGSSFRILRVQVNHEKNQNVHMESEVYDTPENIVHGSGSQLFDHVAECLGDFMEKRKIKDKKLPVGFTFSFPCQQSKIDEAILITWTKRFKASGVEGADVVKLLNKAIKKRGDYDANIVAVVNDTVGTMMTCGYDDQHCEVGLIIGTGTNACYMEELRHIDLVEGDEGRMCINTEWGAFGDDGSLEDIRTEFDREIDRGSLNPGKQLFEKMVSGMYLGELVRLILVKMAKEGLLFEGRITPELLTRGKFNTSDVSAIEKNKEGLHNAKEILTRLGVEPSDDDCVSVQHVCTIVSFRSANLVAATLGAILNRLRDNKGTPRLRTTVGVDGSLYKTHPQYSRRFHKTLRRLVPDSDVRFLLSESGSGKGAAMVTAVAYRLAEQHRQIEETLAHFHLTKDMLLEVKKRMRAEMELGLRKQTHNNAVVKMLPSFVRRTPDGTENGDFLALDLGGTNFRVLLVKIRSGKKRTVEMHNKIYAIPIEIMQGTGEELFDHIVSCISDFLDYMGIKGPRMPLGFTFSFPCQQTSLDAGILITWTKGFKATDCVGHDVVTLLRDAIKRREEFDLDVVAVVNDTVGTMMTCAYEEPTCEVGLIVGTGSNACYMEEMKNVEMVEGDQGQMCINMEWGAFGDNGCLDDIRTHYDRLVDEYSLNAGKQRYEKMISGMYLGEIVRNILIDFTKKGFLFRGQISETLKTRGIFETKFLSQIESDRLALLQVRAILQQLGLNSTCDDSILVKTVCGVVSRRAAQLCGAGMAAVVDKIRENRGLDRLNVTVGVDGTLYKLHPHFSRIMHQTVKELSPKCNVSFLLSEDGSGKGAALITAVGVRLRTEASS

Hexokinase HKDC1 = target: T6, Hexokinase HKDC1 (Homo sapiens, UniProt Q2TB90); experiment: SAR analysis of small molecule inhibitors of hexokinase domain containing I (HKDC1). [Related pubchem assays (depositor defined):AID493160, AID493190]
T6 sequence (Q2TB90 whole entry): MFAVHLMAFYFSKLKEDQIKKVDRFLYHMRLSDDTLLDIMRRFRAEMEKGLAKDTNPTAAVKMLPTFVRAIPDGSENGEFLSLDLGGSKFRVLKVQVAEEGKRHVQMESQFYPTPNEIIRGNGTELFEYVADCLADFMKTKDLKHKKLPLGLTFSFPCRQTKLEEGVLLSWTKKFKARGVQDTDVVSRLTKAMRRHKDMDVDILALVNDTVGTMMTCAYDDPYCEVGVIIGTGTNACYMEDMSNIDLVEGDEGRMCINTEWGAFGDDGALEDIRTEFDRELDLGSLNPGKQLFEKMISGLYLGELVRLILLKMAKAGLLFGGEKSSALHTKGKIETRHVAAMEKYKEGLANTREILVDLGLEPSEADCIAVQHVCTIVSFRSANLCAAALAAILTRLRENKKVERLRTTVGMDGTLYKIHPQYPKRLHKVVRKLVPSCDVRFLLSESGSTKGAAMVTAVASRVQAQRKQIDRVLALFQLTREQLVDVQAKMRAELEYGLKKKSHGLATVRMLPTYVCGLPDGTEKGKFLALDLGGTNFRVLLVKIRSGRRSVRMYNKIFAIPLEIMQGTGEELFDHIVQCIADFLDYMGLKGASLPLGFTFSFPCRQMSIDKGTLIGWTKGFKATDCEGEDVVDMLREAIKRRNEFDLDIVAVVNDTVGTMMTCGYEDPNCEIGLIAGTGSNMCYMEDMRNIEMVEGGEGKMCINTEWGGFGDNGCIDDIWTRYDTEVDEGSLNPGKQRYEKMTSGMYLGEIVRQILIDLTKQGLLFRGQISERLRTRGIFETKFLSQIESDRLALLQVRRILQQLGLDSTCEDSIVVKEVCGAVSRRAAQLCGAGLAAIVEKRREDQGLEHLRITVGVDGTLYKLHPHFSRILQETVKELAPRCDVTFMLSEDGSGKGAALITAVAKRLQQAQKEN

SMILES	IC50 [1]	IC50 (Caspase-3 [6])	IC50 [8]	IC50 (Hexokinase-1)	IC50 (Hexokinase HKDC1)	IC50 [7]	other results
Clc1ccc2oc(-c3ccccc3)nc2c1	22 µM (active)	14.2 µM (active)	7.93 µM (active)			> 100 µM (inactive)	
O=C(Nc1nnc(SCc2ccc(F)cc2)s1)c1ccc2ncsc2c1				> 80 µM (inactive)	12 µM (active)		IC50 [9]: 26.2 µM (active)
O=C(O)CSc1cc(NS(=O)(=O)c2ccccc2)c2ccccc2c1O				> 80 µM (inactive)	4.84 µM (active)		

Now from value to molecule, other results behind:

IC50 [1]	IC50 (Caspase-3 [6])	IC50 [8]	IC50 (Hexokinase-1)	IC50 (Hexokinase HKDC1)	SMILES	IC50 [7]	other results
13 µM (active)	94.9 µM (active)	> 100 µM (inactive)			O=C(O)c1ccc(OC2CSC2)cc1	8.43 µM (active)	IC50 [2]: > 99 µM (inactive); IC50 [3]: 30 µM (active); IC50 [4]: 18.7 µM (active); IC50 (Caspase-3 [5]): > 99 µM (inactive)
			> 80 µM (inactive)	> 80 µM (inactive)	Cc1nc(C)c(C(=O)Nc2cccc(C(=O)Nc3cccc(C(F)(F)F)c3)c2)s1		
